Where “and” joins values, the source holds several entries; their conditions need not be identical. Identical values can stand only once.
Tests used:
[1] = tested on: Eukaryotic translation initiation factor for E binding protein 1 (EIF4EBP1); assay: Microarray gene expression in adipose tissue of Tempol-fed mice; type: in vivo
Method: (§1) In a further gene expression study, Tempol was administered to experimental mice at a dose of 5 g/kg of diet from 12 months through 15 months. Mice receiving the same diet without the addition of Tempol were used as a negative control. At the age of 15 months, the adipose tissue of the experimental animals was obtained. The expression of a broad spectrum of genes in the adipose tissue was assessed using chip-based microarray technology. Specifically, in this case an Affymetrix MOE430A 2.0 array, containing 12,960 genes, was employed. Such chips are well known in the art and are widely used to assess gene expression.

Cyclooxygenase 1 (COX-1) = assay: as above; type: in vivo
Method: as §1

[2] = tested on: Eukaryotic translation initiation factor 4 E2 (EIF4E2); assay: as above; type: in vivo
Method: as §1

Caspase 3 [3] = assay: as above; type: in vivo
Method: as §1

[4] = tested on: eukaryotic translation initiation factor 4E binding protein; assay: Circulating serum protein levels in patient after Tempol treatment; type: in vivo, human; settings: 1500 mg per day for 180 days
Source text: (§2) This may be administered in a single dose, or may be administered as a number of smaller doses over a 24-hour period: for example, three 500-mg doses at eight-hour intervals. Following treatment, the circulating serum protein levels of serum amyloid P-component precursor, serum amyloid A-1 protein precursor, JAK-1, cathepsin B, eukaryotic translation initiation factor 4E member 2, cyclooxygenase-1, and caspase 3 are reduced. Furthermore, the serum protein levels of eukaryotic translation initiation factor 4E binding protein are increased.
(§3) This may be administered in a single dose, or may be administered as a number of smaller doses over a 24-hour period: for example, three 500-mg doses at eight-hour intervals. Following treatment, the circulating serum protein levels of serum amyloid P-component precursor, serum amyloid A-1 protein precursor, JAK-1, and cathepsin B, eukaryotic translation initiation factor 4E member 2, cyclooxygenase-1, and caspase 3 are reduced. Furthermore, the serum protein levels of eukaryotic translation initiation factor 4E binding protein are increased.

cyclooxygenase-1 = assay: as above; type: in vivo, human; settings: 1500 mg per day for 180 days
Source text: as §2, §3

[5] = tested on: serum amyloid A-1 protein precursor; assay: as above; type: in vivo, human; settings: 1500 mg per day for 180 days
Source text: as §2, §3

[6] = tested on: eukaryotic translation initiation factor 4E member 2; assay: as above; type: in vivo, human; settings: 1500 mg per day for 180 days
Source text: as §2, §3

caspase 3 [7] = assay: as above; type: in vivo, human; settings: 1500 mg per day for 180 days
Source text: as §2, §3

[8] = tested on: serum amyloid P-component precursor; assay: as above; type: in vivo, human; settings: 1500 mg per day for 180 days
Source text: as §2, §3

cathepsin B = assay: as above; type: in vivo, human; settings: 1500 mg per day for 180 days
Source text: as §2, §3

JAK-1 = assay: as above; type: in vivo, human; settings: 1500 mg per day for 180 days
Source text: as §2, §3

[9] = tested on: Interferon induced protein (AA013783); assay: Microarray gene expression in cardiac tissue of Tempol-fed mice; type: in vivo; settings: 5 mg/g of food from 14 to 31 months
Method: (§4) To assess the effects of Tempol on gene expression, Tempol was administered to experimental mice at a dose of 5 mg/g of food from 14 months to 31 months after birth. Mice receiving the same food without the addition of Tempol were used as a negative control. At the age of 31 months, the experimental animals were sacrificed and the hearts were surgically removed. The expression of a broad spectrum of genes in the cardiac tissue was assessed using chip-based microarray technology. Such chips are well known in the art and are widely used to assess gene expression.

[10] = tested on: Serum amyloid A-1 protein precursor (M13521); assay: as above; type: in vivo
Method: as §4

[11] = tested on: T-lymphocyte 1/rpt-1 regulatory protein (J03776); assay: as above; type: in vivo; settings: 5 mg/g of food from 14 to 31 months
Method: as §4

[12] = adipose tissue of experimental mice, Table 4
[13] = Example 1: 70-kilogram patient with symptoms of dementia
[14] = Example 2: 70-kilogram patient with familial risk factors, no symptoms of dementia

CC1(C)CC(O)CC(C)(C)N1[O] [Tempol, 4-hydroxy-2,2,6,6-tetramethylpiperidine-1-oxyl]
Mean (Tempol-treated mice) ([1]; EIF4EBP1, 5 g/kg of diet from 12 through 15 months, Affymetrix MOE430A 2.0 array): 4737
Fold change ([1]; EIF4EBP1, Tempol-treated vs control mice, 5 g/kg of diet from 12 through 15 months): 1.29 fold
expression of EIF4E binding protein 1 upregulated ([1]; Table 3): 1.29 fold
Mean (Tempol-treated mice) (Cyclooxygenase 1 (COX-1); COX-1, adipose tissue, 5 g/kg of diet from 12 through 15 months, Affymetrix MOE430A 2.0 array): 331
Fold change (Cyclooxygenase 1 (COX-1); COX-1, adipose tissue, Tempol-treated vs control mice, 5 g/kg of diet from 12 through 15 months): −1.18 fold
expression of COX-1 reduced (Cyclooxygenase 1 (COX-1); [12]): 1.18 fold
Mean (Tempol-treated mice) ([2]; EIF4E2, 5 g/kg of diet from 12 through 15 months, Affymetrix MOE430A 2.0 array): 873
Fold change ([2]; EIF4E2, Tempol-treated vs control mice, 5 g/kg of diet from 12 through 15 months): −1.23 fold
expression of the EIF4E2 protein downregulated ([2]; Table 4): 1.23 fold
Mean (Tempol-treated mice) (Caspase 3 [3]; Caspase 3, adipose tissue, 5 g/kg of diet from 12 through 15 months, Affymetrix MOE430A 2.0 array): 414
Fold change (Caspase 3 [3]; Caspase 3, adipose tissue, Tempol-treated vs control mice, 5 g/kg of diet from 12 through 15 months): −1.47 fold
expression of caspase 3 reduced (Caspase 3 [3]; [12]): 1.47 fold
serum protein level of eukaryotic translation initiation factor 4E binding protein [4, 13]: increased
serum protein level of eukaryotic translation initiation factor 4E binding protein [4, 14]: increased
circulating serum protein level of cyclooxygenase-1 (cyclooxygenase-1; [13]): reduced
circulating serum protein level of cyclooxygenase-1 (cyclooxygenase-1; [14]): reduced
circulating serum protein level of serum amyloid A-1 protein precursor [5, 13]: reduced
circulating serum protein level of serum amyloid A-1 protein precursor [5, 14]: reduced
circulating serum protein level of eukaryotic translation initiation factor 4E member 2 [6, 13]: reduced
circulating serum protein level of eukaryotic translation initiation factor 4E member 2 [6, 14]: reduced
circulating serum protein level of caspase 3 (caspase 3 [7]; [13]): reduced
circulating serum protein level of caspase 3 (caspase 3 [7]; [14]): reduced
circulating serum protein level of serum amyloid P-component precursor [8, 13]: reduced
circulating serum protein level of serum amyloid P-component precursor [8, 14]: reduced
circulating serum protein level of cathepsin B (cathepsin B; [13]): reduced
circulating serum protein level of cathepsin B (cathepsin B; [14]): reduced
circulating serum protein level of JAK-1 (JAK-1; [13]): reduced
circulating serum protein level of JAK-1 (JAK-1; [14]): reduced
Fold change ([9]; TEMPOL-treated vs control mice): −4.9 fold
Expression, TEMPOL-treated mice (tp51, tp52, tp53) ([9]; individual mice): −81 and 27 and 41
Fold change ([10]; M13521, cardiac tissue, TEMPOL-treated vs control mice, 5 mg/g of food from 14 to 31 months): −2.5 fold
Expression, TEMPOL-treated mice (tp51, tp52, tp53) ([10]; M13521, cardiac tissue, individual mice, 5 mg/g of food from 14 to 31 months): 6 and 1 and 8
expression of serum amyloid A-1 protein precursor reduced ([10]; cardiac tissue of experimental mice, Table 1): 2.5 fold
Fold change ([11]; TEMPOL-treated vs control mice): −2.7 fold
Expression, TEMPOL-treated mice (tp51, tp52, tp53) ([11]; individual mice): 17 and 42 and 29

Reference: patent US20090042937A1, “[…] USE IN TREATING OR […]-RELATED DISEASES” (priority 2005, published 2009)
